Measurements taken from publication PMC5285354, “Cationic Net Charge and Counter Ion Type as Antimicrobial Activity Determinant Factors of Short Lipopeptides” (Frontiers in Microbiology, 2017).
Values after ≈ are worked out from the molar mass of the structure shown. Like-named read-outs stand apart in the source and are kept apart here. Where a SMILES comes first, the peptide text is derived from it. The star is where a group is joined. Decanoyl = CCCCCCCCCC(=O)*; Octanoyl = CCCCCCCC(=O)*

Legend:
Assay type in all cases: cell-based
[1] = system: Pseudomonas aeruginosa (ATCC 9027); settings: ATCC 9027, 24 h
[2] = system: Candida tropicalis (PCM 2681); settings: PCM 2681, 48 h
Protocol: (§1) The minimum inhibitory concentration (MIC), minimum bactericidal concentration (MBC) and minimum fungicidal concentration (MFC) were determined according to the procedure recommended by the Clinical Laboratory Standards Institute (CLSI). The following reference strains were tested: Gram-negative E. coli (ATCC 25922), K. pneumoniae (ATCC 700603), P. vulgaris (PCM 2668), P. aeruginosa (ATCC 9027), Gram-positive S. aureus (ATCC 25923), S. epidermidis (PCM 2118), B. subtilis (ATCC 6633), E. faecalis (ATCC 29212) and fungi C. albicans (ATCC 10231), C. tropicalis (PCM 2681), and A. brasiliensis (ATCC 16404). All the microorganisms were from the Polish Collection of Microorganisms (Wroclaw, Poland). MIC was determined using a microbroth dilution method with Mueller-Hinton (MH) broth for bacteria and Sabouraud Dextrose broth for fungi (Becton Dickinson, Le Pont de Claix, France). An initial inoculum of 10^5 cfu/mL was used for bacteria and 10^3 cfu/mL for fungi. Polypropylene 96-well plates (Kartell, Noviglio, Italy) were incubated for 18 h at 37°C for bacteria and for 48 h at 25°C for the tested fungi. MIC (μg/mL) was taken as the lowest concentration of the lipopeptide, at which the observable growth was inhibited. […] The experiments were performed in triplicate on three different days.

[3] = system: Staphylococcus epidermidis (PCM 2118)
Protocol: as §1

[4] = system: Staphylococcus aureus (ATCC 25923); settings: for MBC Staphylococcus aureus: MIC wells subcultured on Mueller-Hinton II Agar, 24 h 37°C, triplicate
Protocol: as §1

[5] = system: Proteus vulgaris (PCM 2668); settings: PCM 2668, TFA salt, triplicate; for MIC Proteus vulgaris: Mueller-Hinton broth, 10^5 cfu/mL, 18 h 37°C; for MBC Proteus vulgaris: subculture on Mueller-Hinton II Agar, 24 h 37°C
Protocol: as §1

[6] = system: Candida albicans (ATCC 10231); settings: ATCC 10231, 48 h
Protocol: as §1

[7] = system: Aspergillus brasiliensis (ATCC 16404); settings: ATCC 16404, 48 h
Protocol: as §1

[8] = system: Pseudomonas aeruginosa (ATCC 9027); settings: for MBC Pseudomonas aeruginosa: subculture on Mueller-Hinton II Agar, 24 h 37°C
Protocol: as §1

[9] = system: Klebsiella pneumoniae (ATCC 700603)
Protocol: as §1

[10] = system: Bacillus subtilis (ATCC 6633)
Protocol: as §1

[11] = system: Enterococcus faecalis (ATCC 29212); settings: for MBC Enterococcus fecalis: subculture on Mueller-Hinton II Agar, 24 h 37°C
Protocol: as §1

[12] = system: Escherichia coli (ATCC 25922)
Protocol: as §1

[13] = ATCC 29212, TFA salt, Mueller-Hinton broth, 10^5 cfu/mL, 18 h 37°C, triplicate
[14] = ATCC 29212, TFA salt, triplicate
[15] = ATCC 25923, TFA salt, Mueller-Hinton broth, 10^5 cfu/mL, 18 h 37°C, triplicate on three days
[16] = ATCC 25922, TFA salt, Mueller-Hinton broth, 10^5 cfu/mL, 18 h 37°C, triplicate
[17] = ATCC 25922, TFA salt, subculture on Mueller-Hinton II Agar, 24 h 37°C, triplicate
[18] = ATCC 9027, TFA salt, Mueller-Hinton broth, 10^5 cfu/mL, 18 h 37°C, triplicate
[19] = ATCC 9027, TFA salt, triplicate
[20] = ATCC 700603, TFA salt, Mueller-Hinton broth, 10^5 cfu/mL, 18 h 37°C, triplicate
[21] = ATCC 700603, TFA salt, subculture on Mueller-Hinton II Agar, 24 h 37°C, triplicate

MIC Candida tropicalis [2] | MIC Staphylococcus epidermidis ([3]; PCM 2118, 18 h) | MIC Proteus vulgaris [5] | MIC Candida albicans [6] | MIC Aspergillus brasiliensis [7] | MIC Bacillus subtillis ([10]; ATCC 6633, 18 h) | MIC Enterococcus fecalis [11, 13] | MIC Staphylococcus aureus [4, 15] | MIC Escherichia coli [12, 16] | MIC Klebsiella pneumoniae [9, 20] | Structure (SMILES) | MFC Candida tropicalis [2] | MBC Staphylococcus epidermidis ([3]; PCM 2118, 24 h) | MBC Staphylococcus aureus ([4]; ATCC 25923, TFA salt) | MBC Proteus vulgaris [5] | MFC Candida albicans [6] | MFC Aspergillus brasiliensis [7] | MBC Bacillus subtillis ([10]; ATCC 6633, 24 h) | MBC Enterococcus fecalis [11, 14] | MBC Escherichia coli [12, 17] | MBC Klebsiella pneumoniae [9, 21] | further results
1000 µg/mL (≈ 3.34 mM) | 1000 µg/mL (≈ 3.34 mM) | >2000 µg/mL | 1000 µg/mL (≈ 3.34 mM) | 512 µg/mL (≈ 1.71 mM) | 1000 µg/mL (≈ 3.34 mM) | >2000 µg/mL | – | – | – | CCCCCCCCCC(=O)N[C@@H](CCCCN)C(N)=O [C10-K-NH2] | 2000 µg/mL (≈ 6.68 mM) | 1000 µg/mL (≈ 3.34 mM) | >1000 µg/mL | >2000 µg/mL | 2000 µg/mL (≈ 6.68 mM) | 1000 µg/mL (≈ 3.34 mM) | 1000 µg/mL (≈ 3.34 mM) | >2000 µg/mL | – | – | MBC Pseudomonas aeruginosa [1]: 1000 µg/mL (≈ 3.34 mM); MIC Staphylococcus aureus ([4]; ATCC 25923, 18 h): 1000 µg/mL (≈ 3.34 mM); MIC Pseudomonas aeruginosa ([8]; ATCC 9027, 18 h): 512 µg/mL (≈ 1.71 mM); MIC Klebsiella pneumoniae ([9]; ATCC 700603, 18 h): 1000 µg/mL (≈ 3.34 mM); MBC Klebsiella pneumoniae ([9]; ATCC 700603, 24 h): 1000 µg/mL (≈ 3.34 mM); MIC Escherichia coli ([12]; ATCC 25922, 18 h): 1000 µg/mL (≈ 3.34 mM); MBC Escherichia coli ([12]; ATCC 25922, 24 h): 1000 µg/mL (≈ 3.34 mM)
512 µg/mL (≈ 0.945 mM) | 512 µg/mL (≈ 0.945 mM) | >2000 µg/mL | 1000 µg/mL (≈ 1.85 mM) | 1000 µg/mL (≈ 1.85 mM) | 512 µg/mL (≈ 0.945 mM) | – | >2000 µg/mL | >2000 µg/mL | – | CCCCCCCCCC(=O)N[C@@H](CCCCN)C(=O)NCC(=O)N[C@@H](CCCCN)C(=O)NCC(N)=O [C10-KGKG-NH2] (Decanoyl-KGKG-NH2) | 2000 µg/mL (≈ 3.69 mM) | 512 µg/mL (≈ 0.945 mM) | >2000 µg/mL | >2000 µg/mL | 2000 µg/mL (≈ 3.69 mM) | 2000 µg/mL (≈ 3.69 mM) | 1000 µg/mL (≈ 1.85 mM) | >2000 µg/mL | >2000 µg/mL | – | MBC Pseudomonas aeruginosa [1]: 2000 µg/mL (≈ 3.69 mM); MIC Pseudomonas aeruginosa ([8]; ATCC 9027, 18 h): 1000 µg/mL (≈ 1.85 mM); MIC Klebsiella pneumoniae ([9]; ATCC 700603, 18 h): 2000 µg/mL (≈ 3.69 mM); MBC Klebsiella pneumoniae ([9]; ATCC 700603, 24 h): 2000 µg/mL (≈ 3.69 mM); MIC Enterococcus fecalis ([11]; ATCC 29212, 18 h): 2000 µg/mL (≈ 3.69 mM)
2000 µg/mL (≈ 4.38 mM) | 256 µg/mL (≈ 0.561 mM) | >2000 µg/mL | 2000 µg/mL (≈ 4.38 mM) | 2000 µg/mL (≈ 4.38 mM) | 512 µg/mL (≈ 1.12 mM) | >2000 µg/mL | >2000 µg/mL | >2000 µg/mL | >2000 µg/mL | CCCCCCCC(=O)N[C@@H](CCCCN)C(=O)NCC(=O)N[C@@H](CCCCN)C(N)=O [C8-KGK-NH2] (Octanoyl-Lys-Gly-Lys-NH2) | 2000 µg/mL (≈ 4.38 mM) | 1000 µg/mL (≈ 2.19 mM) | >2000 µg/mL | >2000 µg/mL | 2000 µg/mL (≈ 4.38 mM) | 2000 µg/mL (≈ 4.38 mM) | 1000 µg/mL (≈ 2.19 mM) | >2000 µg/mL | >2000 µg/mL | >2000 µg/mL | MIC Pseudomonas aeruginosa [8, 18]: >2000 µg/mL; MBC Pseudomonas aeruginosa [8, 19]: >2000 µg/mL
1000 µg/mL (≈ 3.68 mM) | – | >2000 µg/mL | 1000 µg/mL (≈ 3.68 mM) | 1000 µg/mL (≈ 3.68 mM) | – | >1000 µg/mL | >1000 µg/mL | >1000 µg/mL | >1000 µg/mL | CCCCCCCC(=O)N[C@@H](CCCCN)C(N)=O [C8-K-NH2] | 2000 µg/mL (≈ 7.37 mM) | – | >1000 µg/mL | >2000 µg/mL | 1000 µg/mL (≈ 3.68 mM) | 1000 µg/mL (≈ 3.68 mM) | – | >1000 µg/mL | >1000 µg/mL | >1000 µg/mL | MIC Staphylococcus epidermidis ([3]; PCM 2118, TFA salt, Mueller-Hinton broth, 10^5 cfu/mL, 18 h 37°C, triplicate): >1000 µg/mL; MBC Staphylococcus epidermidis ([3]; PCM 2118, TFA salt, subculture on Mueller-Hinton II Agar, 24 h 37°C, triplicate): >1000 µg/mL; MIC Pseudomonas aeruginosa [8, 18]: >2000 µg/mL; MBC Pseudomonas aeruginosa [8, 19]: >2000 µg/mL; MIC Bacillus subtillis ([10]; ATCC 6633, TFA salt, Mueller-Hinton broth, 10^5 cfu/mL, 18 h 37°C, triplicate): >1000 µg/mL; MBC Bacillus subtillis ([10]; ATCC 6633, TFA salt, subculture on Mueller-Hinton II Agar, 24 h 37°C, triplicate): >1000 µg/mL
512 µg/mL (≈ 1.06 mM) | 512 µg/mL (≈ 1.06 mM) | >2000 µg/mL | 1000 µg/mL (≈ 2.06 mM) | 1000 µg/mL (≈ 2.06 mM) | 512 µg/mL (≈ 1.06 mM) | >2000 µg/mL | >2000 µg/mL | >2000 µg/mL | >2000 µg/mL | CCCCCCCCCC(=O)N[C@@H](CCCCN)C(=O)NCC(=O)N[C@@H](CCCCN)C(N)=O [C10-KGK-NH2] (Decanoyl-Lys-Gly-Lys-NH2) | 1000 µg/mL (≈ 2.06 mM) | 512 µg/mL (≈ 1.06 mM) | >2000 µg/mL | >2000 µg/mL | 1000 µg/mL (≈ 2.06 mM) | 1000 µg/mL (≈ 2.06 mM) | 1000 µg/mL (≈ 2.06 mM) | >2000 µg/mL | >2000 µg/mL | >2000 µg/mL | MBC Pseudomonas aeruginosa [1]: 2000 µg/mL (≈ 4.13 mM); MIC Pseudomonas aeruginosa ([8]; ATCC 9027, 18 h): 2000 µg/mL (≈ 4.13 mM)
2000 µg/mL (≈ 3.79 mM) | 256 µg/mL (≈ 0.485 mM) | >2000 µg/mL | 2000 µg/mL (≈ 3.79 mM) | 2000 µg/mL (≈ 3.79 mM) | 1000 µg/mL (≈ 1.89 mM) | >2000 µg/mL | >2000 µg/mL | >2000 µg/mL | >2000 µg/mL | CCCCCCCC(=O)N[C@@H](CCCCN)C(=O)N[C@@H](CCCCN)C(=O)N[C@@H](CCCCN)C(N)=O [C8-KKK-NH2] | 2000 µg/mL (≈ 3.79 mM) | 512 µg/mL (≈ 0.97 mM) | >2000 µg/mL | >2000 µg/mL | 2000 µg/mL (≈ 3.79 mM) | 2000 µg/mL (≈ 3.79 mM) | 1000 µg/mL (≈ 1.89 mM) | >2000 µg/mL | >2000 µg/mL | >2000 µg/mL | MIC Pseudomonas aeruginosa [8, 18]: >2000 µg/mL; MBC Pseudomonas aeruginosa [8, 19]: >2000 µg/mL
